In general, EC50 refers to the concentration giving half of the maximal effect. As usually defined, the IC50 is the concentration that gives 50% inhibition.

Each structure is given as a SMILES string. Where two headings read alike, the source gives them in different places.

Assay [1] has as its system Nanoluciferase-expressing C. parvum. The assay is described as follows: Inhibition of Nanoluciferase expressing C. parvum growth in HCT-8 cells. It is filed as cell-based, Cryptosporidium parvum. To be noted: read-out: Nluc Cp EC50. As to the method:
[…] ( UW ) Inhibition of C. parvum growth and EC50 det erm i nat i ons w ere perf ormed w i t h a Na nol uci feras e-expressing C. parvum parasi t e i n HC T-8 cel l s. Oocys ts were propag ated i n cal v es (Cryptosporidium Producti on La borato ry, School o f Ani mal and Comparati ve Bi omedi cal Sci ences, Universi ty of Ari zona) and i sol ated from stool s by sucrose suspensi on and cesi um chl ori de gradi ent. HCT-8 cel ls were seeded to a 384-well plate and allowed to grow for 72 h to reach 90-100% confluence at 37 °C in 5% CO2. Oocysts were activated by 10-15 mi n i ncubat i on i n 10% bl each (0. 6% s odi um hy pochl o ri t e) at room temperature and then washed wi th DPBS. 2000 oocysts per wel l were appl ied to 384-well pl at es wi t h RPM I-1640 medi um s up pl ement ed w i th 10% ho rs e s erum and 1% pe ni ci l li n/s t rept omy ci n at the same time as compound addition. The compound and the oocysts were left in place for the full 72 h g row t h t i me. The amount of l uci feras e-induced light emission was determined by lysing the cell monol ayer, addi ng Nan o-Glo® luciferase reagent (Promega, Madison, W I , USA), and readi ng o n a n EnVi s i on M ul t il abe l Pl at e Re ade r (P e rk i n El me r, Wal t ham, M A, USA). C ont rol s i ncl ude d i nfe ct e d w e lls with no addition of inhibitors and the background was taken as wells where no C. parvum was adde d.
The per cent ag e of g row t h versus infected ce lls with no inhibitor was calculated for each concentrati on of BKI an d the hal f maxi mal effecti ve concentrati on (EC50) v al ues were determi ned by a si gmoi dal dose response wi th vari abl e sl ope usi ng GraphPad Pri sm versi on 6.07 (GraphPa d Software, La Jol l a, Cal i forni a, USA). […]

The target in assay [2] is PfKRS1 (Plasmodium falciparum, UniProt Q8IDJ8). The assay is described as follows: PfKRS1 SAR assay, luciferase ATP consumption (Kinase-Glo). As to conditions: for IC50: Kinase-Glo assay. Details: recombinant PfKRS1 (77–583 and 80–583); 6xHis (N); made in house; host or cells: E. coli Rosetta BL21(DE3), vector pAVA0421. It is filed as biochemical. The procedure: We produced recombinant PfKRS1 (77–583 and 80–583), CpKRS (46-end), and HsKRS (full-length) proteins and developed biochemical assays based on the luciferase ATP consumption assay (Kinase-Glo; Promega) ([16]), which was suitable for the high-throughput screening, and the pyrophosphate generation assay (EnzChek) ([17]) format for kinetic characterization of the enzymes. The activities of recombinant enzymes were analyzed by monitoring only the first stage of the aminoacylation reaction. This reaction is suitable for high-throughput screening campaigns and makes the reaction more amenable for steady-state kinetic studies. By using the EnzChek assay, which monitors the production of pyrophosphate (when coupled with pyrophosphatase), Km values were obtained for PfKRS1, CpKRS, and HsKRS for ATP and L-lysine (Table 1 and SI Appendix, Fig. S1 and Table S1). […] This may be due to structural differences (see below) between the active sites of the parasite and human enzymes. […]
Chain of PfKRS1 (Q8IDJ8 77-583): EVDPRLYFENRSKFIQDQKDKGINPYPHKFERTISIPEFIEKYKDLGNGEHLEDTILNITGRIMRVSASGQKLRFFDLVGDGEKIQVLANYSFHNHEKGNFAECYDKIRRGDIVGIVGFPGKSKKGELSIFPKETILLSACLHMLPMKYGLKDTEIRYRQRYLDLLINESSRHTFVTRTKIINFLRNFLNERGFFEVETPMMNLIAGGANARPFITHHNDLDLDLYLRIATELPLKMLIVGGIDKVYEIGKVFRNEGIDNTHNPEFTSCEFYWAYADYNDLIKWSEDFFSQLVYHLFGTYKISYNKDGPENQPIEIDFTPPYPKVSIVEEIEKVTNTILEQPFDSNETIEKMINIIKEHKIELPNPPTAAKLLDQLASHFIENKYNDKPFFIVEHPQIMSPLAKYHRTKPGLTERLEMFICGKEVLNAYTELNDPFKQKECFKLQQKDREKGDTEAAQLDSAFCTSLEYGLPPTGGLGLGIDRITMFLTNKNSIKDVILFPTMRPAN
2.7 PfKR S1, CpKRS and HsKR S S AR Ass ay Usin g L ucife r ase ATP C onsumption ( Kinase Glo ®) Inhi bi ti on of KRS acti vity by cl adospori n and other compou nds was assayed i n t he buffered me di um.
Each as s ay w el l was compos ed of b uffer (as des cri bed i n Ta bl e S3), 10 µM l ysi ne and ei ther 8.1 nM PfKRS1, 8.1 nM CpKRS or 6.6 nM HsKRS. […] The react i on w a s initiated by the addition of 2 µM ATP. The plate was incubated with shaking at 90 rpm and 30°C for 120 mi n. […] Maximum and minimum signal controls were included in each reaction plate. […] Analysis and calculation of inhibitors IC50 values were performed using Graphpad® Prism software (GraphPad S oftware, San Diego, CA). […]
For orientation: In Kinase-Glo more light means more ATP remaining.

Assay [3] has as its system HepG2 cells. The assay is described as follows: HepG2 cytotoxicity. Type of assay: cell-based. As to conditions: Homo sapiens. The source says: 3.2 Cytotoxicity Studies (Dundee)
In vi t ro cy totox i ci ty s tudies can be ca rri ed out us i ng Hep G 2 (Human C aucas i an hepatocy te ca rci noma, ECACC cat. no. 850 114 30) us ed as i ndi cators f or g eneral mammal i an cel l tox i ci ty . […]
3.3 In vitro Cell Assay D ata Analysis (Du ndee) […]
as 0%. Qual i ty control c ri teri a for passi ng pl ates were as fol l ow s : Z’ > 0.
< 15 . T he f ormula used to calculate Z’ is 1- 3´ (St D e v _ hi gh + St D e v_ low) . […]
Al l EC50 Curve fitti ng was undertaken usi ng XLFi t versi on 4.2 usi ng Model 205 wi th the foll owi ng 4 paramet ri c equat i on: A + (?-A) ,where A=% i nhi bi ti on at bo ttom, B=% i nhi bi ti on at top, C= EC , […]
D= slope, x= inhibitor concentration a nd y= % inhibition. […]
was fixed to 100 only when at least 50% of inhibition was reached. […]

Where [4] appears, read: Cryptosporidium parvum, HCT-8, C. parvum growth in HCT-8 cells.

On to `C[C@H]1CCC[C@H](C[C@H]2Cc3cc(O)cc(O)c3C(=O)O2)O1` [Compound 1, cladosporin, reference compound], for which the EC50 is 670 nM in assay [1] (C. parvum growth in HCT-8 cells), 700 nM in assay [1] (setting [4]) and > 50 µM in assay [3]. Further, the IC50 in assay [2] was found to be 4 nM.

Regarding `O=C(NCC1(O)CCCCC1)c1cc(=O)c2cc(F)ccc2o1` [Compound 4], the EC50 in assay [1] (setting [4]) came to 140 nM; in assay [3] it was 32 µM. Further, the IC50 in assay [2] is 5 nM.

On to `O=C(NCC1(O)CCC(F)(F)CC1)c1cc(=O)c2cc(F)ccc2o1` [Compound 5], for which the values for the EC50 in assay [1] (setting [4]) and in assay [3] were 2500 nM and 49 µM, respectively. Further, the IC50 in assay [2] came out at 15 nM. Further, the “selectivity ratio for HsKRS/PfKRS1” value in assay [2] (in Kinase-Glo) is 120 fold.

`O=C(NCC1CCCCC1)c1cc(=O)c2cc(F)ccc2o1` [Compound 3]: the figures for the 50% effective concentration (EC50) in assay [1] (setting [4]) and in assay [3] were 810 nM and > 50 µM, respectively. Also, the IC50 in assay [2] amounted to 14 nM.

On to `O=C(NCC1CCCCC1)c1cc(=O)c2ccccc2o1` [Compound 2], for which the results for the EC50 in assay [1] (setting [4]) and in assay [3] were 1200 nM and > 50 µM, respectively. Moreover, the IC50 in assay [2] was 4 nM.

Values taken from PMC6452685, “Lysyl-tRNA synthetase as a drug target in malaria and cryptosporidiosis” (Proceedings of the National Academy of Sciences of the …, 2019).
